Assay results reported in the supplement of paper PMC10307832.

How the values were obtained:
Test in all cases: relative viability (nuclei count vs DMSO), 5 days (fraction); higher = more cells survive
[1] = compound: CCN(CCO)CCCC(C)Nc1ccnc2cc(Cl)ccc12 [Hydroxychloroquine] + CCNC(=O)c1noc(-c2cc(C(C)C)c(O)cc2O)c1-c1ccc(CN2CCOCC2)cc1 [Luminespib] (partner 0.01 µM)
Outline: (§1)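 Medians of duplicate plates are given as relative viability. That measure is the nuclei count in treated wells divided by the count in vehicle wells. Counts were taken on 4× images of lung cancer cell lines in 1536-well plates, 5 days after pin-tool dosing the day after seeding with one drug alone or a fixed anchor-drug dose plus five library-drug doses (not always all listed) in √10 steps.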

[2] = compound: CCN(CCO)CCCC(C)Nc1ccnc2cc(Cl)ccc12 [Hydroxychloroquine] + C[C@]1(O)C[C@@H](c2nc(-c3ccc4ccc(-c5ccccc5)nc4c3)c3c(N)nccn32)C1 [Linsitinib] (partner 1 µM)
Outline: as §1

[3] = compound: CCN(CCO)CCCC(C)Nc1ccnc2cc(Cl)ccc12 [Hydroxychloroquine] + CS(=O)(=O)CCNCc1ccc(-c2ccc3ncnc(Nc4ccc(OCc5cccc(F)c5)c(Cl)c4)c3c2)o1 [Lapatinib] (partner 2 µM)
Outline: as §1

[4] = compound: CCN(CCO)CCCC(C)Nc1ccnc2cc(Cl)ccc12 [Hydroxychloroquine] + COc1cccc2cc(-c3nc([C@H]4CC[C@H](C(=O)O)CC4)n4ncnc(N)c34)[nH]c12 [OSI-027] (partner 0.5 µM)
Outline: as §1

| Cell Line | relative viability ([1]; first compound 0.5 µM) | relative viability ([1]; first compound 1.581 µM) | relative viability ([1]; first compound 5 µM) | relative viability ([1]; first compound 15.81 µM) | relative viability ([1]; first compound 50 µM) | relative viability ([2]; first compound 0.5 µM) | relative viability ([2]; first compound 1.581 µM) | relative viability ([2]; first compound 5 µM) | relative viability ([2]; first compound 15.81 µM) | relative viability ([2]; first compound 50 µM) | relative viability ([3]; first compound 0.5 µM) | relative viability ([3]; first compound 1.581 µM) | relative viability ([3]; first compound 5 µM) | relative viability ([3]; first compound 15.81 µM) | relative viability ([3]; first compound 50 µM) | relative viability ([4]; first compound 0.5 µM) | relative viability ([4]; first compound 1.581 µM) | relative viability ([4]; first compound 5 µM) | relative viability ([4]; first compound 15.81 µM) | relative viability ([4]; first compound 50 µM) |
| --- | --- | --- | --- | --- | --- | --- | --- | --- | --- | --- | --- | --- | --- | --- | --- | --- | --- | --- | --- | --- |
| NCI-H727 | 0.265 | 0.423 | 0.318 | 0.464 | 0.779 | 0.279 | 0.276 | 0.306 | 0.305 | 0.357 | 0.893 | 0.842 | 0.699 | 0.814 | 0.931 | 0.672 | 0.639 | 0.796 | 0.555 | 0.632 |
| LK-2 | 0.192 | 0.171 | – | 0.193 | 0.224 | 0.473 | 0.438 | 0.843 | 0.607 | 0.696 | 0.918 | 0.947 | 0.883 | 1.03 | 1.04 | 0.201 | 0.198 | 0.155 | 0.206 | 0.208 |
| NCI-H1993 | 0.943 | 0.789 | 0.846 | 0.864 | 0.928 | 0.707 | 0.719 | 0.683 | 0.718 | 0.735 | 0.751 | 0.759 | 0.899 | 0.834 | 0.839 | 0.546 | 0.563 | 0.558 | 0.555 | 0.541 |
| PC-14 | 0.17 | 0.151 | 0.17 | 0.173 | 0.154 | 0.889 | 1.07 | 0.995 | 1.03 | 0.97 | 0.348 | 0.354 | 0.291 | 0.306 | 0.292 | 0.958 | 0.586 | 0.872 | 0.861 | 0.927 |
| NCI-H1437 | 1.2 | 1.1 | 1.18 | 1.04 | 1.24 | 0.904 | 1.07 | 1.18 | 1.16 | 1.05 | 0.833 | 1.05 | 0.885 | 0.758 | 0.845 | 0.813 | 1.02 | 0.859 | 0.949 | 0.909 |
| NCI-H460 | 0.0311 | 0.0319 | 0.0298 | 0.0324 | 0.0362 | 0.849 | 0.862 | 0.633 | 0.939 | 0.848 | 1.03 | 1.05 | 0.778 | 1.55 | 1.5 | 0.621 | 0.649 | 0.569 | 0.672 | 0.847 |
| SW 1573 | 0.399 | 0.153 | 0.203 | 0.174 | 0.193 | 0.698 | 0.625 | 0.67 | 0.74 | 0.674 | 0.98 | 1.01 | 1.15 | 1.07 | 0.997 | 0.591 | 0.524 | 0.674 | 0.649 | 0.826 |
| BEN | 0.382 | 0.331 | 0.309 | 0.311 | 0.33 | 0.87 | 0.929 | 0.872 | 0.973 | 1.15 | 0.704 | 0.553 | 0.609 | 0.707 | 0.891 | 0.319 | 0.284 | 0.268 | 0.373 | 0.325 |
| LC-2-ad | 1.19 | 1.02 | 0.906 | 1.01 | 0.969 | 0.92 | 0.782 | 0.93 | 0.863 | 0.818 | 0.977 | 0.958 | 0.979 | 0.999 | 1.02 | 0.953 | 0.793 | 0.853 | 0.805 | 0.868 |
| COR-L23 | 0.683 | 0.662 | 0.818 | 0.948 | 0.705 | 0.989 | 0.872 | 0.947 | 0.997 | 1.02 | 0.681 | 0.992 | 0.992 | 1.23 | 1.21 | 0.756 | 0.809 | 0.822 | 0.91 | 0.85 |
| SK-LU-1 | 0.21 | 0.209 | 0.21 | 0.205 | 0.187 | 1.11 | 1.09 | 1.04 | 1.19 | 0.982 | 0.932 | 0.845 | 0.896 | 0.871 | 0.909 | 0.394 | 0.348 | 0.337 | 0.334 | 0.34 |
| NCI-H1915 | 0.756 | 0.788 | 0.94 | 1.12 | 0.915 | 1.11 | 1.13 | 1.11 | 1.09 | 1.11 | 0.958 | 0.91 | 1 | 1.07 | 1.02 | 0.648 | 0.53 | 0.599 | 0.583 | 0.685 |
| NCI-H647 | 0.204 | 0.141 | 0.132 | 0.234 | 0.142 | 1.27 | 1.01 | 1.29 | 1.25 | 1.22 | 1.22 | 1.11 | 1.09 | 1.26 | 1.26 | 0.703 | 0.737 | 0.683 | 0.893 | 0.607 |
| NCI-H2009 | 0.94 | 0.964 | 1.09 | 1.1 | 0.999 | 1.2 | 1.2 | 1.28 | 1.23 | 1.14 | 0.909 | 0.826 | 0.874 | 0.898 | 0.893 | 0.632 | 0.616 | 0.651 | 0.658 | 0.644 |
| NCI-H2126 | 0.908 | 0.838 | 0.823 | 0.96 | 0.931 | 0.694 | 0.634 | 0.681 | 0.649 | 0.747 | 0.74 | 0.649 | 0.761 | 0.797 | 0.816 | 0.625 | 0.631 | 0.763 | 0.606 | 0.702 |
| LXF-289 | 0.745 | 0.824 | 0.713 | 0.576 | 0.721 | 0.986 | 0.985 | 0.992 | 0.995 | 1 | 0.868 | 0.906 | 0.911 | 0.848 | 0.891 | 0.78 | 0.77 | 0.751 | 0.781 | 0.792 |
